# “Also recorded” adds a separate entry of the source.
# Tests used:
# [1] = test system: hypertensive rats; settings: hypertensive rats only; Circulation 1997; 96: 3164-3172; cited from earlier work
# [2] = test system: isolated thoracic aorta of WKY rats; assay: Vessel function on isolated rings of the thoracic aorta: endothelium-dependent relaxation by acetylcholine after KCl precontraction; assay type: in vivo, rat; settings: KCl-precontracted aorta rings, 30-month-old rats
# Procedure: The interim analysis was carried out after 80% of the placebo-treated animals had died; this was the case after 30 months. 10 animals of each group were selected at random and anesthetized (hexobarbital, 80 mg·kg^−1, i.p.). Blood samples were then taken, and the thoracic aortae and the hearts were prepared and biochemically and/or functionally examined (Linz et al., 1997). The aorta was introduced into Tyrode's solution and freed from the surrounding fatty tissue. Segments of 2 mm were then sliced into rings, and these rings were introduced in a temperature-controlled (37° C.) organ bath (10 ml) with Tyrode's solution (composition in mol/l: NaCl 136.9; NaHCO3 11.9; KCl 2.7; CaCl2 0.5; MgCl2 2.0; NaHPO4 0.4; glucose 5.5; pH=7.4), and 95% O2/5% CO2 was bubbled through the solution. Each ring was mounted vertically between two fine steel clamps. The upper clamp was connected to a force sensor. The force signal was recorded using a computer-assisted biosignal analyzer. The aorta rings were suspended using a passive tension of 4.9 mN. After an adaptation period of one hour, the rings were contracted using potassium chloride (20 mmol/l). After a plateau had been reached, increasing concentrations of acetylcholine of 10^−8, 10^−7, 10^−6 and 10^−5 mol/l were added to the bath, triggering an endothelium dependent relaxation.
# [3] = test system: WKY rats; assay: Histomorphological examination of organs (heart, kidneys, skeletal muscles, eyes, liver); assay type: in vivo, rat; settings: for age-related histomorphological organ changes (connective tissue in heart muscle, muscular dystrophy, tubulointerstitial kidney damage, retina atrophy): life-long treatment, WKY rats
# From the text: The effect of a life-long treatment of young normotensive Wistar-Kyoto rats (WKY rats) with the sodium-hydrogen exchanger (“NHE”) inhibitor cariporide was investigated. In addition to the primary end point, the lifespan, surrogate parameters were studied and measured, for example the hypertrophy of the left ventricle of the heart, heart function, metabolism and endothelial function. In addition, organs, such as heart, kidneys, skeletal muscles and eyes, were examined histomorphologically. In accordance with the method described by Langendorff, the hearts were perfused with an oxygen-saturated (95% O2, […]), non-circulating Krebs-Henseleit solution of the following composition (mmol/l): NaCl, 118; KCl, 4.7; CaCl2, 2.5; MgSO4, 1.6; NaHCO3, 24.9; KH2PO4, 1.2; glucose, 5.5; Na-pyruvate, 2.0, using a perfusion pressure of 60 mm Hg. The pressure in the left ventricle and the pulse frequency of the heart were measured using a balloon catheter. The coronary blood flow was determined using an electromagnetic flow gage. After a washing phase of 5 minutes, 1 ml of the coronary effluent was taken off for measuring the lactate concentrations and the lactate dehydrogenase and creatine kinase activities. The weights of the entire heart and the weights of the left and the right ventricle were then determined. The left ventricle was fixed in 10% strength neutral buffered formalin solution and embedded in paraffin for light-microscopic examination.
# [4] = test system: isolated heart of WKY rats; assay: Function and metabolism of the isolated heart (Langendorff) after 30 months of treatment; assay type: in vivo, rat; settings: n = 10 per group
# Procedure: (§1) The interim analysis was carried out after 80% of the placebo-treated animals had died; this was the case after 30 months. 10 animals of each group were selected at random and anesthetized (hexobarbital, 80 mg·kg^−1, i.p.). Blood samples were then taken, and the thoracic aortae and the hearts were prepared and biochemically and/or functionally examined (Linz et al., 1997). In accordance with the method described by Langendorff, the hearts were perfused with an oxygen-saturated (95% O2, […]), non-circulating Krebs-Henseleit solution of the following composition (mmol/l): NaCl, 118; KCl, 4.7; CaCl2, 2.5; MgSO4, 1.6; NaHCO3, 24.9; KH2PO4, 1.2; glucose, 5.5; Na-pyruvate, 2.0, using a perfusion pressure of 60 mm Hg. The pressure in the left ventricle and the pulse frequency of the heart were measured using a balloon catheter. The coronary blood flow was determined using an electromagnetic flow gage. After a washing phase of 5 minutes, 1 ml of the coronary effluent was taken off for measuring the lactate concentrations and the lactate dehydrogenase and creatine kinase activities. The weights of the entire heart and the weights of the left and the right ventricle were then determined. The left ventricle was fixed in 10% strength neutral buffered formalin solution and embedded in paraffin for light-microscopic examination.
# [5] = test system: normotensive Wistar-Kyoto rats (WKY rats); assay: Life-long treatment of normotensive WKY rats with cariporide via the feed: lifespan, cumulative survival rate, onset of age-related cancer; assay type: in vivo, rat
# From the text: The effect of a life-long treatment of young normotensive Wistar-Kyoto rats (WKY rats) with the sodium-hydrogen exchanger (“NHE”) inhibitor cariporide was investigated. In addition to the primary end point, the lifespan, surrogate parameters were studied and measured, for example the hypertrophy of the left ventricle of the heart, heart function, metabolism and endothelial function. In addition, organs, such as heart, kidneys, skeletal muscles and eyes, were examined histomorphologically.
# Ninety one-month-old WKY rats were randomized into two groups of placebo-treated (n=45) and cariporide-treated (n=45) rats. Cariporide was administered via the feed (active compound content 0.3%).
# Male WKY rats were purchased from Møllegrad Denmark. The animals (3 per cage) were kept under standardized conditions with respect to temperature, atmospheric humidity and light. The rats had free access to a standard diet (Altromin® maintenance diet 1320, sodium content 0.2%) and received drinking water ad libitum. All experiments were carried out in accordance with the German Law on the Protection of Animals.
# Ninety one-month-old animals were randomized into two groups of in each case 45 animals. After randomization, placebo and cariporide were administered to the rats via the drinking water and the feed, respectively, a proportion of 0.3% of the feed ensuring complete blockage of the NHE for 24 hours.
# At intervals of 3 months, the body weight was determined and the blood pressure was measured using the tail plethysmography method. Events of death were registered after they had occurred.
# All data are stated as mean±standard deviations. The survival data were analyzed in accordance with Kaplan-Meier, followed by a Mantel-Cox log-rank test. Furthermore, variance analysis (ANOVA) followed by a Student-Newman-Keuls test were employed. Null hypotheses were rejected at p<0.05.
# [6] = test system: WKY rats; assay: Interim analysis after 30 months: organ weights (heart, ventricles, kidneys, spleen); assay type: in vivo, rat
# Procedure: as §1
compound,measurement,setting,value
CCOC(=O)[C@H](CCc1ccccc1)N[C@@H](C)C(=O)N1[C@H](C(=O)O)C[C@@H]2CCC[C@@H]21 [ramipril],effect on lifespan,[1],life-prolonging effect
"CC(C)c1ccc(C(=O)N=C(N)N)cc1S(C)(=O)=O.CS(=O)(=O)O [Cariporide, cariporide]",Vessel function on the aorta (relaxation in %),[2]; ACh 10^−5 mol/l,95 ± 10%
same,Vessel function on the aorta (relaxation in %),[2]; ACh 10^−6 mol/l,85 ± 8 %
same,Vessel function on the aorta (relaxation in %),[2]; ACh 10^−7 mol/l,50 ± 6 %
same,Vessel function on the aorta (relaxation in %),[2]; ACh 10^−8 mol/l,5 ± 2%
same,histomorphology of the livers,[3]; compared with control animals,unchanged
same,"age-related histomorphological organ changes (connective tissue in heart muscle, muscular dystrophy, tubulointerstitial kidney damage, retina atrophy)",[3],drastically reduced
same,"age-related histomorphological organ changes (connective tissue in heart muscle, muscular dystrophy, tubulointerstitial kidney damage, retina atrophy)",[3]; listed as cariporide,reduced drastically or prevented completely
same,CF (coronary flow),[4],34.6 ± 0.7 mL/min/g
same,CK (creatine kinase in the coronary effluent),[4],0.20 ± 0.02 mU/min/g heart wwt
same,HR,[4],182 ± 7 beats/min
same,LDH (lactate dehydrogenase in the coronary effluent),[4],0.42 ± 0.02 mU/min/g heart wwt
same,LVP (pressure in the left ventricle),[4],111.5 ± 3.9 mm Hg
same,Lactate in the coronary effluent,[4],2.5 ± 0.13 μmol/min/g heart wwt
same,dP/dtmax (constriction rate of the left ventricle),[4],4432 ± 121 mm Hg/s
same,Survival rate in percent,[5]; 19 months,100%
same,Survival rate in percent,[5]; 20 months,100%
same,Survival rate in percent,[5]; 21 months,100%
same,Survival rate in percent,[5]; 22 months,100%
same,Survival rate in percent,[5]; 23 months,97%
same,Survival rate in percent,[5]; 24 months,97%
same,Survival rate in percent,[5]; 25 months,97%
same,Survival rate in percent,[5]; 26 months,97%
same,Survival rate in percent,[5]; 27 months,97%
same,Survival rate in percent,[5]; 28 months,97%
same,Survival rate in percent,[5]; 29 months,92%
same,Survival rate in percent,[5]; 30 months,89%
same,Survival rate in percent,[5]; 31 months,80%
same,Survival rate in percent,[5]; 32 months,75%
same,Survival rate in percent,[5]; 33 months,67%
same,Survival rate in percent,[5]; 34 months,59%
same,Survival rate in percent,[5]; 35 months,49%
same,Survival rate in percent,[5]; 36 months,38%
same,Survival rate in percent,[5]; 37 months,28%
same,Survival rate in percent,[5]; 38 months,17%
same,Survival rate in percent,[5]; 39 months,10%
same,maximum lifespan,"[5]; life-long treatment, 0.3% in feed, WKY rats, placebo 30 months",39 months
same,onset of age-related cancer,"[5]; life-long treatment, WKY rats, listed as cariporide",delayed onset; also recorded: delayed significantly
same,life extension,[5]; maximum lifespan versus placebo,30%
same,"Heart weight, Heart (total)",[6]; n = 10/group,235 ± 10 mg/100 g of body weight
same,"Heart weight, Left ventricle",[6]; n = 10/group,193 ± 8 mg/100 g of body weight
same,"Heart weight, Right ventricle",[6]; n = 10/group,36 ± 2 mg/100 g of body weight
same,age-related hypertrophy of the heart,[6]; versus placebo-treated animals,prevented

# — patent US6420430B1, “Use of inhibitors of the sodium-hydrogen exchanger for preparing a medicament for preventing age-related disorders, and for prolonging life” (Aventis Pharma Deutschland GmbH, priority 1998, dated 2002)
